Assay [1] has as its system SARS-CoV-2 (USA_WA1/2020) in VeroE6 cells enriched for hACE2 expression. Kind of assay: Antiviral Activity from SARS-CoV-2 Infection (cytopathic effect, Cell Titer-Glo cell viability). Particulars: Severe acute respiratory syndrome coronavirus 2, Vero C1008, 72 h; VeroE6 cells enriched for hACE2, multiplicity of infection 0.002, 3-day incubation; alone or with 2 μM CP-100356 (table does not say which); read-out: Antiviral Assay Geometric Mean EC50. Type of assay: cell-based.

Assay [2] addresses T1, full length SARS-CoV-2 3CL protease (Severe acute respiratory syndrome coronavirus 2, UniProt P0DTD1).
T1 construct: measures the activity of full length SARS-CoV-2 3CL protease
The experiment in a line: SARS-CoV-2 Coronavirus 3C Protease FRET Assay. The assay is classed as biochemical. The settings on record: 15 nM enzyme, 25 μM peptide substrate, 60 minutes at 23° C., Morrison equation fit; read-out: FRET Assay Geometric Mean Ki.

Broadly, the EC50 is the concentration that produces a half-maximal response. A word on the Ki: it is a dissociation constant, usually derived from enzyme kinetics or from competition with a known ligand.

`CC(C)[C@H](NS(C)(=O)=O)C(=O)N1CC2(CC2)C[C@H]1C(=O)N[C@@H](C[C@@H]1CCNC1=O)C(=O)c1nc2ccccc2s1` [Example 1, (6S)—N-{(2S)-1-(1,3-Benzothiazol-2-yl)-1-oxo-3-[(3S)-2-oxopyrrolidin-3-yl]propan-2-yl}-5-{(2S)-3-methyl-2-[(methylsulfonyl)amino]butanoyl}-5-azaspiro[2.4]heptane-6-carboxamide]: the EC50 in assay [1] was 5680 nM. For the same compound, the Ki in assay [2] was 20.2 nM.
In the case of `COc1cccc2[nH]c(C(=O)N3C[C@H]4[C@@H]([C@H]3C(=O)N[C@@H](C[C@@H]3CCNC3=O)C(=O)c3nc5ccccc5s3)C4(C)C)cc12` [Example 2, (1R,2S,5S)—N-{(2S)-1-(1,3-Benzothiazol-2-yl)-1-oxo-3-[(3S)-2-oxopyrrolidin-3-yl]propan-2-yl}-3-[(4-methoxy-1H-indol-2-yl)carbonyl]-6,6-dimethyl-3-azabicyclo[3.1.0]hexane-2-carboxamide], in assay [2], the Ki turned out to be 206 nM.
Regarding `CC(C)[C@H](NS(C)(=O)=O)C(=O)N1C[C@H]2[C@@H]([C@H]1C(=O)N[C@@H](C[C@@H]1CCNC1=O)C(=O)c1nc3c(C(F)(F)F)cccc3s1)C2(C)C` [Example 4, (1R,2S,5S)-6,6-Dimethyl-3-[N-(methylsulfonyl)-L-valyl]-N-{(2S)-1-oxo-3-[(3S)-2-oxopyrrolidin-3-yl]-1-[4-(trifluoromethyl)-1,3-benzothiazol-2-yl]propan-2-yl}-3-azabicyclo[3.1.0]hexane-2-carboxamide], in assay [2], the Ki turned out to be 7.74 nM.
Take `CC(C)(C)OC(=O)N[C@H](C(=O)N1C[C@H]2[C@@H]([C@H]1C(=O)N[C@@H](C[C@@H]1CCNC1=O)C(=O)c1nc3ccccc3s1)C2(C)C)C(C)(C)C` [Example 6, tert-Butyl {(2S)-1-[(1R,2S,5S)-2-({(2S)-1-(1,3-benzothiazol-2-yl)-1-oxo-3-[(3S)-2-oxopyrrolidin-3-yl]propan-2-yl}carbamoyl)-6,6-dimethyl-3-azabicyclo[3.1.0]hexan-3-yl]-3,3-dimethyl-1-oxobutan-2-yl}carbamate]: the EC50 in assay [1] was 492 nM. In addition, the Ki in assay [2] is 137 nM.
Take `CC1(C)[C@@H]2[C@@H](C(=O)N[C@@H](C[C@@H]3CCNC3=O)C(=O)c3nc4ccccc4s3)N(C(=O)[C@H]3CCCO3)C[C@@H]21` [Example 8, (1R,2S,5S)-N-{(2S)-1-(1,3-benzothiazol-2-yl)-1-oxo-3-[(3S)-2-oxopyrrolidin-3-yl]propan-2-yl}-6,6-dimethyl-3-[(2R)-tetrahydrofuran-2-ylcarbonyl]-3-azabicyclo[3.1.0]hexane-2-carboxamide]: the Ki in assay [2] is 6330 nM.
On to `O=C1NCC[C@H]1C[C@H](NC(=O)[C@@H]1CC2(CC2)CN1C(=O)[C@H]1CCCO1)C(=O)c1nc2ccccc2s1` [Example 9, (6S)-N-{(2S)-1-(1,3-benzothiazol-2-yl)-1-oxo-3-[(3S)-2-oxopyrrolidin-3-yl]propan-2-yl}-5-[(2R)-tetrahydrofuran-2-ylcarbonyl]-5-azaspiro[2.4]heptane-6-carboxamide], for which the inhibition constant (Ki) in assay [2] is more than 10000 nM.
Regarding `CC(C)[C@H](NS(=O)(=O)C1CC1)C(=O)N1C[C@H]2[C@@H]([C@H]1C(=O)N[C@@H](C[C@@H]1CCNC1=O)C(=O)c1nc3ccccc3s1)C2(C)C` [Example 10, (1R,2S,5S)-N-{(2S)-1-(1,3-benzothiazol-2-yl)-1-oxo-3-[(3S)-2-oxopyrrolidin-3-yl]propan-2-yl}-3-[N-(cyclopropylsulfonyl)-L-valyl]-6,6-dimethyl-3-azabicyclo[3.1.0]hexane-2-carboxamide], in assay [2], the Ki is 19.6 nM.
Turning to `CC(C)(C)[C@H](NS(=O)(=O)C(C)(C)C)C(=O)N1C[C@H]2[C@@H]([C@H]1C(=O)N[C@@H](C[C@@H]1CCNC1=O)C(=O)c1nc3ccccc3s1)C2(C)C` [Example 11, (1R,2S,5S)-N-{(2S)-1-(1,3-benzothiazol-2-yl)-1-oxo-3-[(3S)-2-oxopyrrolidin-3-yl]propan-2-yl}-3-[N-(tert-butylsulfonyl)-3-methyl-L-valyl]-6,6-dimethyl-3-azabicyclo[3.1.0]hexane-2-carboxamide], the EC50 in assay [1] worked out at 155 nM. In addition, in assay [2], the Ki turned out to be 13.7 nM.
With `CC(C)[C@H](NS(=O)(=O)C(C)(C)C)C(=O)N1C[C@H]2[C@@H]([C@H]1C(=O)N[C@@H](C[C@@H]1CCNC1=O)C(=O)c1nc3ccccc3s1)C2(C)C` [Example 12, (1R,2S,5S)-N-{(2S)-1-(1,3-benzothiazol-2-yl)-1-oxo-3-[(3S)-2-oxopyrrolidin-3-yl]propan-2-yl}-3-[N-(tert-butylsulfonyl)-L-valyl]-6,6-dimethyl-3-azabicyclo[3.1.0]hexane-2-carboxamide], the Ki in assay [2] was 34.2 nM.
The same measure, in the same setting: with `CC(C)C(=O)N[C@H](C(=O)N1C[C@H]2[C@@H]([C@H]1C(=O)N[C@@H](C[C@@H]1CCNC1=O)C(=O)c1nc3ccccc3s1)C2(C)C)C(C)(C)C` [Example 14, (1R,2S,5S)-N-{(2S)-1-(1,3-benzothiazol-2-yl)-1-oxo-3-[(3S)-2-oxopyrrolidin-3-yl]propan-2-yl}-6,6-dimethyl-3-[3-methyl-N-(2-methylpropanoyl)-L-valyl]-3-azabicyclo[3.1.0]hexane-2-carboxamide] the figure was 6.02 nM.
Same read-out and setting: with `CCC(=O)N[C@H](C(=O)N1C[C@H]2[C@@H]([C@H]1C(=O)N[C@@H](C[C@@H]1CCNC1=O)C(=O)c1nc3ccccc3s1)C2(C)C)C(C)(C)C` [Example 15, (1R,2S,5S)-N-{(2S)-1-(1,3-benzothiazol-2-yl)-1-oxo-3-[(3S)-2-oxopyrrolidin-3-yl]propan-2-yl}-6,6-dimethyl-3-(3-methyl-N-propanoyl-L-valyl)-3-azabicyclo[3.1.0]hexane-2-carboxamide] the figure was 6.14 nM; with `CCS(=O)(=O)N[C@H](C(=O)N1C[C@H]2[C@@H]([C@H]1C(=O)N[C@@H](C[C@@H]1CCNC1=O)C(=O)c1nc3ccccc3s1)C2(C)C)C(C)C` [Example 16, (1R,2S,5S)-N-{(2S)-1-(1,3-benzothiazol-2-yl)-1-oxo-3-[(3S)-2-oxopyrrolidin-3-yl]propan-2-yl}-3-[N-(ethylsulfonyl)-L-valyl]-6,6-dimethyl-3-azabicyclo[3.1.0]hexane-2-carboxamide], 10.3 nM.
With `CC(C)(C)C(=O)N[C@H](C(=O)N1C[C@H]2[C@@H]([C@H]1C(=O)N[C@@H](C[C@@H]1CCNC1=O)C(=O)c1nc3ccccc3s1)C2(C)C)C(C)(C)C` [Example 17, (1R,2S,5S)-N-{(2S)-1-(1,3-benzothiazol-2-yl)-1-oxo-3-[(3S)-2-oxopyrrolidin-3-yl]propan-2-yl}-3-[N-(2,2-dimethylpropanoyl)-3-methyl-L-valyl]-6,6-dimethyl-3-azabicyclo[3.1.0]hexane-2-carboxamide], the EC50 in assay [1] came out at 584 nM. In assay [2], the Ki was 99.1 nM.
For `CC(C)(C)[C@H](NS(C)(=O)=O)C(=O)N1C[C@H]2[C@@H]([C@H]1C(=O)N[C@@H](C[C@@H]1CCNC1=O)C(=O)c1nc3ccccc3s1)C2(C)C` [Example 18, (1R,2S,5S)-N-{(2S)-1-(1,3-benzothiazol-2-yl)-1-oxo-3-[(3S)-2-oxopyrrolidin-3-yl]propan-2-yl}-6,6-dimethyl-3-[3-methyl-N-(methylsulfonyl)-L-valyl]-3-azabicyclo[3.1.0]hexane-2-carboxamide], the concentration for a half-maximal effect (EC50) in assay [1] was found to be 129 nM. Also, in assay [2], the Ki was found to be 1.55 nM.
In the same order, the values of `CC(=O)N[C@H](C(=O)N1C[C@H]2[C@@H]([C@H]1C(=O)N[C@@H](C[C@@H]1CCNC1=O)C(=O)c1nc3ccccc3s1)C2(C)C)C(C)(C)C` [Example 19, (1R,2S,5S)-3-(N-acetyl-3-methyl-L-valyl)-N-{(2S)-1-(1,3-benzothiazol-2-yl)-1-oxo-3-[(3S)-2-oxopyrrolidin-3-yl]propan-2-yl}-6,6-dimethyl-3-azabicyclo[3.1.0]hexane-2-carboxamide] are 1330 nM and 9.77 nM.
For the compound `CC1(C)C[C@@H](C(=O)N[C@@H](C[C@@H]2CCNC2=O)C(=O)c2nc3ccccc3s2)N(C(=O)[C@H]2CCCO2)C1` [Example 20, N-{(2S)-1-(1,3-benzothiazol-2-yl)-1-oxo-3-[(3S)-2-oxopyrrolidin-3-yl]propan-2-yl}-4,4-dimethyl-1-[(2R)-tetrahydrofuran-2-ylcarbonyl]-L-prolinamide], the Ki in assay [2] is more than 10800 nM.

The record behind these values is US12577240B2, “Antiviral heteroaryl ketone derivatives” (Pfizer Inc., priority 2020, dated 2026).
